In general, T/C refers to the ratio of treated to control.

SMILES strings stand for the structures. Where “and” joins values, the source holds several entries; their conditions need not be identical. Identical values can stand only once.

The assay relates to BDF1 mice, Adenocarcinoma 755 s.c., tumor weight T/C. Put plainly: NCI In Vivo Anticancer Drug Screen. Data for tumor model Adenocarcinoma 755 (subcutaneous) in B6D2F1 (BDF1) mice. Conditions: endpoint: mean tumor weight, higher = larger tumour. In outline: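 In vivo antitumor screen on a transplantable tumor line. Result equals the measure in compound-treated animals divided by the same measure in vehicle controls.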

For the compound `Nc1nc(SCc2ccccc2)c2[nH]cnc2n1`, the T/C (dose: 0.37 mg/kg/injection, schedule: Q01DX011 (ip), vehicle: carboxymethylcellulose (CMC)) is 114 % of control; the T/C (dose: 0.37 mg/kg/injection, schedule: Q01DX011 (oral), vehicle: carboxymethylcellulose (CMC)) is 71 % of control; the T/C (dose: 0.75 mg/kg/injection, schedule: Q01DX011 (ip), vehicle: carboxymethylcellulose (CMC)) is 38 % of control; the T/C (dose: 0.75 mg/kg/injection, schedule: Q01DX011 (oral), vehicle: carboxymethylcellulose (CMC)) was 52 % of control; the T/C (dose: 1.0 mg/kg/injection, schedule: Q#A X021 (ip), vehicle: carboxymethylcellulose (CMC)) is 45 % of control; the T/C (dose: 1.25 mg/kg/injection, schedule: Q01DX011 (ip), vehicle: carboxymethylcellulose (CMC)) was 53 % of control. Also, the T/C is, setting by setting: (dose: 1.5 mg/kg/injection, schedule: Q01DX011 (im), vehicle: carboxymethylcellulose (CMC)) 69 % of control; (dose: 1.5 mg/kg/injection, schedule: Q01DX011 (ip), vehicle: carboxymethylcellulose (CMC)) 41 % of control; (dose: 1.5 mg/kg/injection, schedule: Q01DX011 (oral), vehicle: carboxymethylcellulose (CMC)) 61 % of control; (dose: 1.75 mg/kg/injection, schedule: Q01DX001 (ip), vehicle: carboxymethylcellulose (CMC)) 94 % of control and 114 % of control; (dose: 2.0 mg/kg/injection, schedule: Q01DX006 (iv), vehicle: carboxymethylcellulose (CMC)) 91 % of control; (dose: 2.0 mg/kg/injection, schedule: Q01DX011 (im), vehicle: carboxymethylcellulose (CMC)) 38 % of control. The T/C was 33 % of control (dose: 2.0 mg/kg/injection, schedule: Q01DX011 (ip), vehicle: carboxymethylcellulose (CMC)); 56 % of control (dose: 2.0 mg/kg/injection, schedule: Q01DX011 (sc), vehicle: carboxymethylcellulose (CMC)); 15 % of control (dose: 2.0 mg/kg/injection, schedule: Q#A X021 (ip), vehicle: carboxymethylcellulose (CMC)); 32 % of control (dose: 2.5 mg/kg/injection, schedule: Q01DX011 (ip), vehicle: carboxymethylcellulose (CMC)); 12 % of control (dose: 3.0 mg/kg/injection, schedule: Q01DX011 (im), vehicle: carboxymethylcellulose (CMC)); 5 % of control (dose: 3.0 mg/kg/injection, schedule: Q01DX011 (ip), vehicle: carboxymethylcellulose (CMC)). The T/C is 19 % of control (dose: 3.0 mg/kg/injection, schedule: Q01DX011 (oral), vehicle: carboxymethylcellulose (CMC)); 112 % of control and 115 % of control (dose: 3.5 mg/kg/injection, schedule: Q01DX001 (ip), vehicle: carboxymethylcellulose (CMC)); 40 % of control (dose: 4.0 mg/kg/injection, schedule: Q01DX006 (iv), vehicle: carboxymethylcellulose (CMC)); 10 % of control (dose: 4.0 mg/kg/injection, schedule: Q01DX011 (im), vehicle: carboxymethylcellulose (CMC)); 8 % of control (dose: 4.0 mg/kg/injection, schedule: Q01DX011 (ip), vehicle: carboxymethylcellulose (CMC)); 13 % of control (dose: 4.0 mg/kg/injection, schedule: Q01DX011 (sc), vehicle: carboxymethylcellulose (CMC)). The T/C is 20 % of control and 33 % of control (dose: 7.0 mg/kg/injection, schedule: Q01DX001 (ip), vehicle: carboxymethylcellulose (CMC)); 13 % of control (dose: 8.0 mg/kg/injection, schedule: Q01DX006 (iv), vehicle: carboxymethylcellulose (CMC)); 3 % of control (dose: 8.0 mg/kg/injection, schedule: Q01DX011 (im), vehicle: carboxymethylcellulose (CMC)); 3 % of control (dose: 8.0 mg/kg/injection, schedule: Q01DX011 (ip), vehicle: carboxymethylcellulose (CMC)); 4 % of control (dose: 8.0 mg/kg/injection, schedule: Q01DX011 (sc), vehicle: carboxymethylcellulose (CMC)); 25 % of control (dose: 8.0 mg/kg/injection, schedule: Q03DX004 (ip), vehicle: carboxymethylcellulose (CMC)). Besides, the T/C (dose: 14.0 mg/kg/injection, schedule: Q07DX002 (ip), vehicle: carboxymethylcellulose (CMC)) is 34 % of control; the T/C (dose: 16.0 mg/kg/injection, schedule: Q01DX006 (iv), vehicle: carboxymethylcellulose (CMC)) was 7 % of control; the T/C (dose: 16.0 mg/kg/injection, schedule: Q01DX011 (im), vehicle: carboxymethylcellulose (CMC)) is 2 % of control; the T/C (dose: 16.0 mg/kg/injection, schedule: Q01DX011 (ip), vehicle: carboxymethylcellulose (CMC)) is 3 % of control; the T/C (dose: 16.0 mg/kg/injection, schedule: Q01DX011 (sc), vehicle: carboxymethylcellulose (CMC)) was 3 % of control; the T/C (dose: 16.0 mg/kg/injection, schedule: Q03DX004 (ip), vehicle: carboxymethylcellulose (CMC)) is 8 % of control. The T/C is, setting by setting: (dose: 24.0 mg/kg/injection, schedule: Q01DX006 (iv), vehicle: carboxymethylcellulose (CMC)) 4 % of control; (dose: 24.0 mg/kg/injection, schedule: Q01DX011 (im), vehicle: carboxymethylcellulose (CMC)) 4 % of control; (dose: 24.0 mg/kg/injection, schedule: Q01DX011 (ip), vehicle: carboxymethylcellulose (CMC)) 3 % of control; (dose: 24.0 mg/kg/injection, schedule: Q01DX011 (sc), vehicle: carboxymethylcellulose (CMC)) 3 % of control; (dose: 28.0 mg/kg/injection, schedule: Q01DX001 (ip), vehicle: carboxymethylcellulose (CMC)) 12 % of control; (dose: 28.0 mg/kg/injection, schedule: Q07DX002 (ip), vehicle: carboxymethylcellulose (CMC)) 30 % of control. Moreover, the T/C runs as follows: (dose: 32.0 mg/kg/injection, schedule: Q01DX006 (iv), vehicle: carboxymethylcellulose (CMC)) 5 % of control; (dose: 32.0 mg/kg/injection, schedule: Q01DX011 (im), vehicle: carboxymethylcellulose (CMC)) 3 % of control; (dose: 48.0 mg/kg/injection, schedule: Q01DX011 (sc), vehicle: carboxymethylcellulose (CMC)) 2 % of control; (dose: 56.0 mg/kg/injection, schedule: Q01DX001 (ip), vehicle: carboxymethylcellulose (CMC)) 10 % of control; (dose: 56.0 mg/kg/injection, schedule: Q07DX002 (ip), vehicle: carboxymethylcellulose (CMC)) 18 % of control; (dose: 64.0 mg/kg/injection, schedule: Q01DX011 (sc), vehicle: carboxymethylcellulose (CMC)) 3 % of control. The T/C by setting is: (dose: 112.0 mg/kg/injection, schedule: Q01DX001 (ip), vehicle: carboxymethylcellulose (CMC)) 10 % of control; (dose: 112.0 mg/kg/injection, schedule: Q07DX002 (ip), vehicle: carboxymethylcellulose (CMC)) 1 % of control.
For the compound `C/C(=N\NC(=O)c1ccncc1)c1ccc(Cl)cc1Cl`, the T/C was 41 % of control (dose: 30.0 mg/kg/injection, schedule: Q01DX011 (ip), vehicle: methylcellulose (MC)) and 58 % of control (dose: 60.0 mg/kg/injection, schedule: Q01DX011 (ip), vehicle: methylcellulose (MC)).
As to `Nc1nc(SCc2ccccn2)c2[nH]cnc2n1`, the T/C was 63 % of control (dose: 0.78 mg/kg/injection, schedule: Q01DX011 (ip), vehicle: methylcellulose (MC)); 14 % of control (dose: 1.56 mg/kg/injection, schedule: Q01DX011 (ip), vehicle: methylcellulose (MC)); 3 % of control (dose: 3.12 mg/kg/injection, schedule: Q01DX011 (ip), vehicle: methylcellulose (MC)); 2 % of control (dose: 6.25 mg/kg/injection, schedule: Q01DX011 (ip), vehicle: methylcellulose (MC)).
With `Nc1nc(N)c2[nH]c(N=Nc3ccc(N(CCO)CCO)cc3)nc2n1`, the T/C reads like this: (dose: 37.5 mg/kg/injection, schedule: Q01DX011 (ip), vehicle: saline) 152 % of control; (dose: 150.0 mg/kg/injection, schedule: Q01DX011 (ip), vehicle: saline) 65 % of control.
With `CC1=CCN2CCC(O)C12` (stereo unspecified), the T/C was 95 % of control (dose: 38.0 mg/kg/injection, schedule: Q01DX011 (ip), vehicle: carboxymethylcellulose (CMC)) and 75 % of control (dose: 150.0 mg/kg/injection, schedule: Q01DX011 (ip), vehicle: carboxymethylcellulose (CMC)).
`COc1ccc(C(=O)OCC2OC(n3cnc4c(=S)nc(N)[nH]c43)C(OC(=O)c3ccc(OC)cc3)C2OC(=O)c2ccc(OC)cc2)cc1` (stereo unspecified): the T/C (dose: 25.0 mg/kg/injection, schedule: Q01DX011 (ip), vehicle: carboxymethylcellulose (CMC)) is 88 % of control; the T/C (dose: 50.0 mg/kg/injection, schedule: Q01DX011 (ip), vehicle: carboxymethylcellulose (CMC)) is 107 % of control; the T/C (dose: 100.0 mg/kg/injection, schedule: Q01DX011 (ip), vehicle: carboxymethylcellulose (CMC)) was 48 % of control; the T/C (dose: 200.0 mg/kg/injection, schedule: Q01DX011 (ip), vehicle: carboxymethylcellulose (CMC)) is 7 % of control.
`O/N=C1\CCCC\C1=N/O`: the T/C is 55 % of control (dose: 200.0 mg/kg/injection, schedule: Q01DX011 (ip), vehicle: other) and 4 % of control (dose: 300.0 mg/kg/injection, schedule: Q01DX011 (ip), vehicle: other).

The record behind these values is PubChem BioAssay AID180 (DTP/NCI, 2004).
